Measurements from paper PMC6038709, “The Drosophila melanogaster Na^+/Ca^2+ Exchanger CALX Controls the Ca^2+ Level in Olfactory Sensory Neurons at Rest and After Odorant Receptor Activation” (Frontiers in Cellular Neuroscience, 2018).

Biological target: T1, Orco (Or83b) (Drosophila melanogaster, UniProt Q9VNB5)
T1 construct: full-length Orco in pcDNA3.1(-), expressed alone (no OrX) in HEK293 cells
T1 sequence (Q9VNB5 1-486): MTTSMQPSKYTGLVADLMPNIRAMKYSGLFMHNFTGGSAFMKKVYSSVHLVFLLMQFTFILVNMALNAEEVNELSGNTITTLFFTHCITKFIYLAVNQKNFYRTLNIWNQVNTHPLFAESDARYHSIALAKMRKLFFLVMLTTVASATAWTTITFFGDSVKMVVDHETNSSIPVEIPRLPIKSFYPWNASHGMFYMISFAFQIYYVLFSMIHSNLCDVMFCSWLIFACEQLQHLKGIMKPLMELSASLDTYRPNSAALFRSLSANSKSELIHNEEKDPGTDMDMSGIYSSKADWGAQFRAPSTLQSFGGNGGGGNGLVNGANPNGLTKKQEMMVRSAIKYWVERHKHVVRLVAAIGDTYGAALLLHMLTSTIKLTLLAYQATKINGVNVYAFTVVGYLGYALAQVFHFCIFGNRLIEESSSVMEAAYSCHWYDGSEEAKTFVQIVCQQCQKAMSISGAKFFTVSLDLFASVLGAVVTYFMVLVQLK
Assay: fura-2 calcium imaging, HEK293 cells
Assay type: cell-based
Details: block of VUAA1-evoked (100 or 50 uM) calcium rise; KB-R7943 100 uM (Methods); pH 7.4; Orco without OrX

N=C(N)SCCc1ccc(OCc2ccc([N+](=O)[O-])cc2)cc1 [KB-R7943, 2-[4-[(4-nitrophenyl)methoxy]phenyl]ethyl ester carbamimidothiotic acid, monomethanesulfonate]
fura-2 calcium imaging, HEK293 cells: we confirmed that KB-R7943 is blocking Orco
